In US12527779B2, “Prostaglandin E2 (PGE2) EP4 receptor antagonists” (Domain Therapeutics, priority 2019, dated 2026):
Structures can show the parent of a compound that is named as a salt.

Tests used:
[1] = target: T1, human EP4 (hEP4) receptor (Homo sapiens, UniProt P35408); assay: In vitro human EP4 functional antagonist activity using BRET biosensors (cAMP EPAC biosensor, TCS2510 stimulation); format: cell-based; conditions: antagonist activity vs EC60 TCS2510, hEP4 in HEK-293 T cells
T1 construct: expressed in transfected cells; host or cells: HEK-293 T cells, transient co-transfection with polyethylenimine
How it was run: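 Antagonism measured as inhibition of EC60 TCS2510-induced cAMP BRET signal (EPAC luciferase/GFP sensor) in transiently hEP4-expressing HEK-293T cells, following 5 min compound preincubation and 10 min luminescence recording. Plates equilibrated 1 h at 22 °C in HEPES buffer; 10 concentrations over 4.5 logs, duplicate in two independent experiments, sigmoidal variable-slope IC50.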

[2] = test system: CT26 tumor cells; assay: In vivo anti-tumoral activity in a CT26 tumor model; parameters: species or system BALB/c mice; conditions: Example 25 150 mg/kg po BID combined with anti-PD-1 antibody 200 μg/mouse iv Q3D; 12 mice per group
Protocol: (§1) CT26 tumor cells were maintained in vitro as a monolayer culture in RPM11640 medium supplemented with 10% fetal bovine serum at 37° C. in an atmosphere of 5% CO2 in air. The cells were routinely subcultured twice weekly by trypsin-EDTA treatment. The cells in an exponential growth phase were harvested and counted for tumor inoculation.
Female BALB/c mice were inoculated subcutaneously in the right rear flank region with CT26 tumor cells (5×10^5) in 0.1 ml of PBS for tumor development on day 0. Tumor volumes were measured thrice per week in two dimensions using a caliper, and the volume was expressed in mm^3 using the formula: “V=(L×W×W)/2”, where V is tumor volume, L is tumor length (the longest tumor dimension) and W is tumor width (the longest tumor dimension perpendicular to L). […]
Animals were checked daily for morbidity and mortality. During routine monitoring, the animals were checked for any effects on tumor growth and treatments on behavior such as mobility, food and water consumption, body weight gain/loss (body weights were measured thrice per week), eye/hair matting and any other abnormalities. […] The body weights and tumor volumes were monitored by using StudyDirector™ software (version 3.1.399.19).

[3] = test system: Pan02 tumor cells; assay: In vivo anti-tumoral activity of Example 25 in a Pan02 tumor model; parameters: species or system C57BL/6 mice
Protocol: as §1, with “Pan02” for “CT26”
Female C57BL/6 mice were inoculated subcutaneously in the right rear flank region with Pan02 tumor cells (3×10^6) in 0.1 ml of PBS for tumor development on day 0. Tumor volumes were measured thrice per week in two dimensions using a caliper, and the volume was expressed in mm^3 using the formula: “V=(L×W×W)/2”, where V is tumor volume, L is tumor length (the longest tumor dimension) and W is tumor width (the longest tumor dimension perpendicular to L). When the mean tumor size reached approximately 100 mm^3, mice were randomly allocated into groups (10 mice per group) and treated with either a control antibody (rIgG2a(2A3), 200 μg/mouse, iv, Q3D) or an anti-PD-1 antibody (RPM1-14, 200 μg/mouse, iv, Q3D), with or without the compound of Example 25 (150 mg/kg, po, 0.5% MC, BID, BID time interval: 8 h) for at least 3 weeks.
Animals were checked daily for morbidity and mortality. During routine monitoring, the animals were checked for any effects on tumor growth and treatments on behavior such as mobility, food and water consumption, body weight gain/loss (body weights were measured thrice per week), eye/hair matting and any other abnormalities. Dosing as well as tumor and body weight measurements were conducted in a Laminar Flow Cabinet. The body weights and tumor volumes were monitored by using StudyDirector™ software (version 3.1.399.19).

T1 sequence (P35408 whole entry): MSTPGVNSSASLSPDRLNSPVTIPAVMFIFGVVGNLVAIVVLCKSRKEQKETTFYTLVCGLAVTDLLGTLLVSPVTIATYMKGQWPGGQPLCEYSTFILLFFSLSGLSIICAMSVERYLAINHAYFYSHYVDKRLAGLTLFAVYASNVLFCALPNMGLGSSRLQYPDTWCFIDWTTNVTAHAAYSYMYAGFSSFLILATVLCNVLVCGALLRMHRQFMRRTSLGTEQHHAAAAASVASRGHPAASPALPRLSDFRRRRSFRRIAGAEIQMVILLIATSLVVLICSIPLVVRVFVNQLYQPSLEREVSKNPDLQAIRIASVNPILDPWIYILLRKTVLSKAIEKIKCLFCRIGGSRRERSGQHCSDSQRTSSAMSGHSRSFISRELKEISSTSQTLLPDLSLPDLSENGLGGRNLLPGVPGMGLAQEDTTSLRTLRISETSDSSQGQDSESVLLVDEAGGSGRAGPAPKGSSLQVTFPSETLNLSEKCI

How did the IC50 [1] turn out when `CN(CCOc1ccccc1)C1(C(=O)NC2(c3ccc(C(=O)O)cc3)CC2)CCOCC1.Cl` [Example 25, 4-[1-[[4-[Methyl(2-phenoxyethyl)amino]tetrahydropyran-4-carbonyl]amino]cyclopropyl]benzoic acid, hydrochloride] was run?
The IC50 was less than 100 nM.

And the “cases of complete tumor regression” value [2]?
The value was 5 cases.

And the “complete tumor regression, % of the test animals” value [2]?
Its value is 42%.

And the “Tumor Growth Inhibition TGI (%)” value ([3]; Example 25 150 mg/kg po BID + anti-PD1 antibody 0.2 mg/animal Q3D, day 0)?
Its value is 0.1%.

And the “Tumor Growth Inhibition TGI (%)” value ([3]; Example 25 150 mg/kg po BID + anti-PD1 antibody 0.2 mg/animal Q3D, day 3)?
The value was 10.9%.

What about the “Tumor Growth Inhibition TGI (%)” value ([3]; Example 25 150 mg/kg po BID + anti-PD1 antibody 0.2 mg/animal Q3D, day 7) of the same compound?
The value was 16.9%.

And the “Tumor Growth Inhibition TGI (%)” value ([3]; Example 25 150 mg/kg po BID + anti-PD1 antibody 0.2 mg/animal Q3D, day 10)?
The value was 26.1%.

And the “Tumor Growth Inhibition TGI (%)” value ([3]; Example 25 150 mg/kg po BID + anti-PD1 antibody 0.2 mg/animal Q3D, day 14)?
Its value is 51.1%.

What about the “Tumor Growth Inhibition TGI (%)” value ([3]; Example 25 150 mg/kg po BID + anti-PD1 antibody 0.2 mg/animal Q3D, day 17) of the same compound?
The value was 62.8%.

What about the “Tumor Growth Inhibition TGI (%)” value ([3]; Example 25 150 mg/kg po BID + anti-PD1 antibody 0.2 mg/animal Q3D, day 21, hydrochloride, 150 mg/kg) of the same compound?
Its value is 71.0%.

And the “Tumor Growth Inhibition TGI (%)” value ([3]; Example 25 150 mg/kg po BID + rIgG2a, day 0)?
Its value is 0.0%.

What about the “Tumor Growth Inhibition TGI (%)” value ([3]; Example 25 150 mg/kg po BID + rIgG2a, day 3) of the same compound?
Its value is 15.6%.

And the “Tumor Growth Inhibition TGI (%)” value ([3]; Example 25 150 mg/kg po BID + rIgG2a, day 7)?
Its value is 22.5%.

What about the “Tumor Growth Inhibition TGI (%)” value ([3]; Example 25 150 mg/kg po BID + rIgG2a, day 10) of the same compound?
The value was 25.1%.

What about the “Tumor Growth Inhibition TGI (%)” value ([3]; Example 25 150 mg/kg po BID + rIgG2a, day 14) of the same compound?
The value was 51.5%.

And the “Tumor Growth Inhibition TGI (%)” value ([3]; Example 25 150 mg/kg po BID + rIgG2a, day 17)?
The value was 61.8%.

What about the “Tumor Growth Inhibition TGI (%)” value ([3]; Example 25 150 mg/kg po BID + rIgG2a, day 21, hydrochloride, 150 mg/kg) of the same compound?
The value was 68.5%.

Which IC50 [1] does the source give for `COc1ccc([C@H](C)NC(=O)C2(N3CC[C@@H](Oc4cccc(C(F)(F)F)c4)C3)CCOCC2)cc1` [Example 195, N—((S)-1-(4-Methoxyphenyl)ethyl)-4-((R)-3-(3-(trifluoromethyl)phenoxy)pyrrolidin-1-yl)tetrahydro-2H-pyran-4-carboxamide, hydrochloride] here?
Its IC50 is less than 100 nM.

How did the IC50 [1] turn out when `COc1cccc([C@H](C)NC(=O)C2(N3CC[C@@H](Oc4cccc(C(F)(F)F)c4)C3)CCOCC2)c1` [Example 196, N—((S)-1-(3-Methoxyphenyl)ethyl)-4-((R)-3-(3-(trifluoromethyl)phenoxy)pyrrolidin-1-yl)tetrahydro-2H-pyran-4-carboxamide, hydrochloride] was run?
The IC50 was less than 1000 nM.

For `COc1ccccc1[C@H](C)NC(=O)C1(N2CC[C@@H](Oc3cccc(C(F)(F)F)c3)C2)CCOCC1` [Example 197, N—((S)-1-(2-Methoxyphenyl)ethyl)-4-((R)-3-(3-(trifluoromethyl)phenoxy)pyrrolidin-1-yl)tetrahydro-2H-pyran-4-carboxamide, hydrochloride], which IC50 [1] is on record?
Its IC50 is less than 1000 nM.

How did the IC50 [1] turn out when `Cc1cc(C2(NC(=O)C3(N4CC[C@@H](Oc5cccc(C(F)(F)F)c5)C4)CCOCC3)CC2)ccc1C(=O)O` [Example 198, (R)-2-Methyl-4-(1-(4-(3-(3-(trifluoromethyl)phenoxy)pyrrolidin-1-yl)tetrahydro-2H-pyran-4-carboxamido)cyclopropyl)benzoic acid, hydrochloride] was run?
Its IC50 is less than 100 nM.

For `O=C(NC[C@H]1CC[C@H](C(=O)O)CC1)C1(N2CC[C@@H](Oc3cccc(C(F)(F)F)c3)C2)CCOCC1` [Example 200, (1R,4R)-4-((4-((R)-3-(3-(Trifluoromethyl)phenoxy)pyrrolidin-1-yl)tetrahydro-2H-pyran-4-carboxamido)methyl)cyclohexane-1-carboxylic acid, hydrochloride], which IC50 [1] is on record?
Its IC50 is less than 100 nM.

For `CC(C)(C(=O)NC[C@H]1CC[C@H](C(=O)O)CC1)N1CC[C@@H](Oc2cccc(C(F)(F)F)c2)C1` [Example 201, (1R,4R)-4-((2-Methyl-2-((R)-3-(3-(trifluoromethyl)phenoxy)pyrrolidin-1-yl)propanamido)methyl)cyclohexane-1-carboxylic acid, hydrochloride], which IC50 [1] is on record?
The IC50 was less than 100 nM.

How did the IC50 [1] turn out when `C[C@H](NC(=O)C(C)(C)N1CC[C@@H](Oc2cccc(C(F)(F)F)c2)C1)c1ccc(S(N)(=O)=O)cc1` [Example 203, 2-Methyl-N—((S)-1-(4-sulfamoylphenyl)ethyl)-2-((R)-3-(3-(trifluoromethyl)phenoxy)pyrrolidin-1-yl)propanamide, hydrochloride] was run?
The IC50 was less than 1000 nM.

For `C[C@H](NC(=O)C(C)(C)N1CC[C@@H](Oc2cccc(C(F)(F)F)c2)C1)c1ccc(S(C)(=O)=O)cc1` [Example 204, 2-Methyl-N—((S)-1-(4-(methylsulfonyl)phenyl)ethyl)-2-((R)-3-(3-(trifluoromethyl)phenoxy)pyrrolidin-1-yl)propanamide, hydrochloride], which IC50 [1] is on record?
Its IC50 is less than 1000 nM.

How did the IC50 [1] turn out when `C[C@H](NC(=O)C(C)(C)N1CC[C@@H](Oc2cccc(C(F)(F)F)c2)C1)c1ccc(S(C)(=N)=O)cc1` (stereo partly drawn) [Example 205, 2-Methyl-N-((1S)-1-(4-(S-methylsulfonimidoyl)phenyl)ethyl)-2-((R)-3-(3-(trifluoromethyl)phenoxy)pyrrolidin-1-yl)propanamide, hydrochloride] was run?
Its IC50 is less than 100 nM.

With `C[C@H](NC(=O)C(C)(C)N1CC[C@@H](COc2cccc(Cl)c2)C1)c1ccc(C(=O)O)cc1` [Example 209, 4-((S)-1-(2-((R)-3-((3-Chlorophenoxy)methyl)pyrrolidin-1-yl)-2-methylpropanamido)ethyl)benzoic acid] as the compound, how does the IC50 [1] read?
The IC50 was less than 100 nM.

Which IC50 [1] does the source give for `CCC(CC)(C(=O)N[C@@H](C)c1ccc(C(=O)O)cc1)N1CC[C@@H](Oc2cccc(Cl)c2)C1` [Example 210, 4-[(1S)-1-[[2-[(3R)-3-(3-Chlorophenoxy)pyrrolidin-1-yl]-2-ethylbutane-carbonyl]amino]ethyl]benzoic acid, hydrochloride] here?
The IC50 was less than 100 nM.
